Source: patent US20090325923A1, “NEW METHOD FOR THE TREATMENT OF INFLAMMATORY DISEASES” (TOPOTARGET SWITZERLAND SA, priority 2006, published 2009)

Assays:
RAW264.7 cell line [1] = test: LPS-stimulated TNF secretion by ELISA in RAW264.7 cells; type: cell-based, mouse; conditions: RAW264.7 cultured overnight with FK866 plus the added substance, LPS 2 h
Method: The murine RAW264.7 cell line was stimulated with LPS in the presence of FK866. TNF protein concentrations were determined by ELISA (above panel) while mRNA levels were determined by RT-PCR (below panel).
(§1) (A) The mouse macrophage cell line RAW264.7 was cultured overnight with increasing doses of FK866, and then stimulated with LPS for 2 h. The culture supernatants were tested for TNF content by ELISA and intracellular NAD levels were measured by an enzymatic assay.
(§2) (B) RAW264.7 cells were cultured overnight in the presence of FK866 and the intracellular pool of NAD was restored by co-incubation of the cells with nicotinic acid (NA). Cells were then stimulated with LPS for 2 h and the culture supernatant was tested for TNF content by ELISA.
(§3) (C) RAW264.7 cells were cultured overnight in the presence of FK866 and NAD levels were maintained by culturing the cells in the presence of extracellular NAD. Cells were then stimulated with LPS for 2 h and the culture supernatant was tested for TNF content by ELISA.
This example illustrates that FK866 inhibits TNFα secretion at a posttranscriptional level. The murine RAW 264.7 cell line was incubated in the presence of graded doses of FK866, stimulated with microbial products, and levels of TNFα released in the supernatant evaluated by ELISA.
as §1, with “This example illustrates the correlation between proinflammatory cytokine secretion and NAD levels in the cell.” for “(A)”
as §2, with “In another experiment,” for “(B)”, “nicotinic acid. Nicotinic” for “nicotinic”, “is a precursor of NAD, but its transformation into NAD is not dependent upon NMPRT and is thus not inhibited by FK866.” for “(NA).”
(§4) In another experiment, RAW264.7 cells were cultured overnight in the presence of FK866 and NAD levels were maintained by culturing the cells in the presence: of extra-cellular NAD. Cells were then stimulated with LPS for 2 h and the culture supernatant was tested for TNF content by ELISA.

RAW264.7 cell line [2] = test: Intracellular NAD by enzymatic assay in RAW264.7 cells; type: cell-based, mouse; conditions: RAW264.7 cultured overnight with FK866 plus the added substance, LPS 2 h
Method: as §1, §2, §3
as §1, with “This example illustrates the correlation between proinflammatory cytokine secretion and NAD levels in the cell.” for “(A)”
as §2, with “In another experiment,” for “(B)”, “nicotinic acid. Nicotinic” for “nicotinic”, “is a precursor of NAD, but its transformation into NAD is not dependent upon NMPRT and is thus not inhibited by FK866.” for “(NA).”
as §4

[3] = tested on: collagen-induced arthritis; test: Collagen-induced arthritis (CIA) mouse model; type: in vivo; conditions: FK866 10 mg/kg ip twice daily or etanercept 15 mg/kg every three days, over 15 days
[4] = tested on: Human monocytic cell line THP-1; test: LPS-stimulated cytokine secretion by ELISA in THP-1 cells; type: cell-based
Method: (§5) Human monocytic cell line THP-1 was cultured overnight in the presence of graded doses of nicotinic acid (NA), a precursor of NAD, and then stimulated with lipopolysaccharide (LPS) from gram-negative bacteria for 2 h. The cell supernatant was tested for tumor necrosis factor (TNF) content by ELISA and the intracellular pool of NAD was measured by an enzymatic assay.
(§6) Human monocytic cell line THP-1, human peripheral blood mononuclear cells (PBMC), human monocyte-derived dendritic cells, or mouse peritoneal macrophages were isolated and cultured overnight with increasing doses of FK866, and then stimulated with LPS for 6 h. The culture supernatants were tested for TNF and IL-6 content by ELISA
THP-1 cells were incubated in the presence of 10 nM FK866 and graded doses of NMN. Cells were further stimulated with LPS and intracellular NAD levels and TNFα secretion were determined using standard assays.
as §5, with “This example illustrates the direct relationship between NAD levels in cells and pro-inflammatory cytokine secretion. Human” for “Human”, “of” for “of graded doses of”, “acid,” for “acid (NA),”
as §6, with “This example describes the inhibition of pro-inflammatory cytokines production by the competitive small molecular weight compound inhibitor of NMPRT, ((E)-N-[4-(1-benzoylpiperidin-4-yl)butyl]-3-(pyridin-3-yl)acrylamide, designated FK866). Human” for “Human”, “ELISA.” for “ELISA”
This example illustrates that NAMPT is the only molecular target of FK866. […]

[5] = tested on: Human monocytic cell line THP-1; test: Intracellular NAD by enzymatic assay in THP-1 cells; type: cell-based
Method: The human THP-1 monocytic cell line was cultured in the presence of medium or FK866 and stimulated by LPS.

[6] = THP-1, 10 nM FK866 and graded doses of NMN, LPS

NC(=O)c1ccc[n+]([C@@H]2O[C@H](COP(=O)([O-])OP(=O)(O)OC[C@H]3O[C@@H](n4cnc5c(N)ncnc54)[C@H](O)[C@@H]3O)[C@@H](O)[C@H]2O)c1 [NAD, nicotinamide adenyl dinucleotide]
TNF synthesis in the presence of FK866 (RAW264.7 cell line [1]): restored | NAD levels in the presence of FK866 (RAW264.7 cell line [2]): remained high

etanercept
severity of arthritis in CIA mice [3]: P<0.05 FK866 or etanercept versus placebo

O=C(O)c1cccnc1 [nicotinic acid]
TNF secretion ([4]; THP-1 cultured overnight with graded doses of nicotinic acid, LPS 2 h, ELISA): increased in parallel in a dose-dependent fashion | intracellular NAD levels ([5]; THP-1 cultured overnight with graded doses of nicotinic acid, LPS 2 h): increased in parallel in a dose-dependent fashion | TNF synthesis in the presence of FK866 (RAW264.7 cell line [1]): restored | NAD levels in the presence of FK866 (RAW264.7 cell line [2]): maintained high levels of NAD

NC(=O)c1ccc[n+]([C@@H]2O[C@H](COP(=O)([O-])O)[C@@H](O)[C@H]2O)c1 [nicotinamide mononucleotide (NMN), nicotinamide mononucleotide]
TNFα production despite exposure to FK866 [4, 6]: restored | intracellular NAD levels despite exposure to FK866 [5, 6]: restored
